# Laboratory results as given in patent publication US5874235A, “Screening assays for cancer chemopreventative agents” (The Johns Hopkins University, priority 1997, dated 1999).
# Like-named read-outs stand apart in the source and are kept apart here.
# How the values were obtained:
# [1] = test system: immortalized human keratinocytes (HaCat); assay: Apoptosis in immortalized keratinocytes; assay type: cell-based; conditions: 48 h, read-out: cells that had undergone apoptosis
# Description: (§1) This ability of SUS is not limited to colon cancer cells; primary fibroblasts and immortalized keratinocytes can increase ceramide levels and undergo apoptosis in response to SUS. […] Forty-eight hours after exposure to 200 μM SUS greater than 70% of the cells had undergone apoptosis and ceramide levels were 8.2 and 4.7 fold increased in HDF and HaCat cells, respectively. This is consistent with NSAIDs' ability to reduce tumor formation in a variety of tissues (19) and their adverse effects on normal gastric mucosa, but it fails to explain the apparent greater sensitivity of tumor cells. The in vivo effect will likely depend on the local concentration of the NSAID in the incipient tumor microenvironment as well as the target cell's "lipid biostat" (20). The fact that the concentration of SUS is higher in the intestines than in other organs, due to enterohepatic circulation and due to the metabolic activation of sulindac to SUS by gut flora (21), may be responsible for its particular efficacy in intestinal tumorigenesis.
# SW480 cells [2] = assay type: cell-based, human
# Description: FIGS. 1A, 1B and 1C NSAID induce apoptosis in human colorectal cancer cells. In FIG. 1A, HCT116 and SW480 cells were treated with indomethacin (INDO) (300 μM) or SUS (125 μM for HCT116 and 200 μM for SW480 cells). Cells were collected at the indicated times, fixed and stained with Hoechst 33258 (23). The cells were counted and those with fragmented nuclei were scored as apoptotic. In FIG. 1B, HCT116 and SW480 cells were treated with SUS or INDO for 60 hours, harvested and stained as described above. Cells treated with SUS or INDO show the hallmarks of apoptosis.
# This death appeared to be apoptotic, as it was accompanied by nuclear condensation and fragmentation (FIG. 1B) and exposure of phosphatidylserine groups on the cell surface, two hallmarks of apoptosis (11, 12).
# [3] = test system: primary human diploid fibroblast (HDF); assay: Apoptosis in primary fibroblasts; assay type: cell-based; conditions: 200 μM SUS, 48 hours, read-out: cells that had undergone apoptosis
# Description: as §1
# SW480 cells [4] = assay: Phosphatidylserine exposure by merocyanine staining; assay type: cell-based, human; conditions: 200 μM SUS, 50 hours
# Description: (§2) Phosphatidylserine exposure was assessed by merocyanine staining as previously described (31). Forty-eight hours after treatment with 125 μM SUS, 44% of HCT116 stained with merocyanine versus 4% in the vehicle-treated control cells. Likewise, 74% of SW480 cells stained with merocyanine 50 hours after treatment with 200 μM SUS versus 1.5% of the vehicle-treated control cells.
# HCT116 cells = assay: as above; assay type: cell-based, human; conditions: 125 μM SUS, 48 hours
# Description: as §2
# COX in SW480 cells = assay: COX activity in treated cells; assay type: cell-based, human
# [5] = test system: primary human diploid fibroblast (HDF); assay: Ceramide levels in primary fibroblasts; assay type: cell-based; conditions: 200 μM SUS, 48 hours, read-out: increase in ceramide levels
# Description: Ceramide levels were measured using the Escherichia coli diacylglycerol (DAG) kinase assay as previously described (30) with the following modifications. After the initial lipid extraction, phases were broken by adding 2 ml chloroform and 2 ml 1M NaCl and lipids were washed with 1M NaCl prior to drying under nitrogen (32, 33). After solubilization, samples were sonicated for 15 seconds. The DAG reaction was performed for 30 minutes at 25° C. in a 100 μl reaction volume with 3.5 μg DAG kinase (Calbiochem) and […] γ^32 P-ATP (Dupont NEN, 6000 Ci/mmol). After extraction of the labeled lipids, the lower chloroform phase was washed with 1% HCl prior to drying under nitrogen. The solvent mixture for thin layer chromatography was chloroform:acetone:methanol:acetic acid:water (10:4:3:2:1). Samples were quantitated using a Phosphorimager (Molecular Dynamics).
# This ability of SUS is not limited to colon cancer cells; primary fibroblasts and immortalized keratinocytes can increase ceramide levels and undergo apoptosis in response to SUS. […] Forty-eight hours after exposure to 200 μM SUS greater than 70% of the cells had undergone apoptosis and ceramide levels were 8.2 and 4.7 fold increased in HDF and HaCat cells, respectively. […]
# [6] = test system: neutral sphingomyelinase in HCT116 cell lysates; assay: Neutral sphingomyelinase activity in lysates of treated cells (14C-sphingomyelin hydrolysis); assay type: cell-based, human; conditions: for neutral sphingomyelinase activity relative to untreated controls: 200 μM SUS
# Description: (§3) To test whether the increased ceramide was associated with evidence of augmented sphingomyelinase activity, we measured total sphingomyelin levels after SUS treatment. […] We also measured neutral sphingomyelinase activity in lysates from the treated cells and no differences were found. Neutral sphingomyelinase activity was assayed as described (18). After cell lysis, protein concentrations were determined using the Bradford method (Bio-Rad) and […] cellular protein was used in each assay. Neutral sphingomyelinase activity was determined by measuring the rate of hydrolysis of ^14 C-labelled sphingomyelin (Amersham). SW480 and HCT116 cell lines were treated with SUS (50, 200, and 600 μM) for 6 to 24 hours.
# [7] = test system: neutral sphingomyelinase in SW480 cell lysates; assay: as above; assay type: cell-based, human; conditions: SUS 50, 200 and 600 μM, 6 to 24 hours
# Description: as §3
# COX in HCT116 cells = assay: COX activity in treated cells; assay type: cell-based, human
# SW480 cells [8] = assay type: cell-based, human; conditions: SUS 100 μM
smiles,measurement,setting,value
"CSc1ccc(/C=C2/C(C)=C(CC(=O)O)c3cc(F)ccc32)cc1 [SUS, sulindac sulfide]",cytotoxicity at 200 µM,[1],> 70%
same,apoptosis,"SW480 cells [2]; 200 μM SUS, 16 hours",the majority of cells had not yet undergone apoptosis
same,apoptosis,"SW480 cells [2]; SUS 200 μM, with or without 10 μM CHX, 48 hours",underwent apoptosis
same,cytotoxicity at 200 µM,[3],> 70%
same,cells stained with merocyanine,SW480 cells [4],74%
same,cells stained with merocyanine,HCT116 cells,44%
same,"COX activity, % of controls",COX in SW480 cells; 50 μM SUS,74+/-22%
same,"COX activity, % of controls",COX in SW480 cells; 200 μM SUS,37+/-27%
same,fold induction at 200 µM,[5],8.2
same,neutral sphingomyelinase activity relative to untreated controls,[6]; 6 hours,90%
same,neutral sphingomyelinase activity relative to untreated controls,[6]; 16 hours,92%
same,neutral sphingomyelinase activity in cell lysates,"[6]; SUS 50, 200 and 600 μM, 6 to 24 hours",None of these treatments enhanced neutral sphingomyelinase activity
same,neutral sphingomyelinase activity in cell lysates,[7],None of these treatments enhanced neutral sphingomyelinase activity
same,"COX activity, % relative to controls",COX in HCT116 cells; 50 μM SUS,98+/-30%
same,"COX activity, % of controls",COX in HCT116 cells; 125 μM SUS,21+/-15%
same,cell death,SW480 cells [8],not at 100 μM
